In US4132731A, “Novel iodized isophthalamic acid compounds” (Schering Aktiengesellschaft, priority 1976, dated 1979):

What was measured:
[1] = general compatibility (LD50 i.v.) in rats; settings: rat, in vivo, iv
rats = assay: neural compatibility: intracerebral compatibility / Valzelli value (ED50) in rats; settings: aqueous meglumine salt solutions, confidence range p 0.05
[2] = rats, aqueous meglumine salt solutions

Compound	LD50 [1] [mg/kg]	Valzelli Value (ED50) and Confidence Range (rats)	LD50 [1, 2] [mg/kg]
CC(=O)Nc1c(I)c(C(=O)O)c(I)c(C(=O)NCCO)c1I [Compound 1, ioxithalamic acid, reference compound]	15200	12.3 (10.3-14.4) mg. I/kg.	
COCC(=O)Nc1c(I)c(C(=O)O)c(I)c(C(=O)NC(C)(C)CO)c1I [Compound 2, N-(2-hydroxy-1,1-dimethylethyl)-2,4,6-triiodo-5-methoxyacetamidoisophthalamic acid]		71.4 (61.4-99.9) mg. I/kg.	20000
COCC(=O)Nc1c(I)c(C(=O)O)c(I)c(C(=O)NCC(C)O)c1I (centres unmarked) [Compound 3, N-(2-Hydroxypropyl)-2,4,6-triiodo-5-methoxyacetamidoisophthalamic Acid]		44.6 (35.5-52.2) mg. I/kg.	19000
COCC(=O)Nc1c(I)c(C(=O)O)c(I)c(C(=O)NCCCO)c1I [Compound 4, N-(3-Hydroxypropyl)-2,4,6-triiodo-5-methoxyacetamidoisophthalamic Acid]		43.1 (32.6-50.9) mg. I/kg.	16300
COCC(=O)Nc1c(I)c(C(=O)O)c(I)c(C(=O)NCCO)c1I [Compound 5, N-(2-Hydroxyethyl)-2,4,6-triiodo-5-methoxyacetamidoisophthalamic Acid]		44.9 (36.7-51,8) mg. I/kg.	> 18600
COCC(=O)Nc1c(I)c(C(=O)O)c(I)c(C(=O)NC(C)(C)CCO)c1I [Compound 6, N-(3-hydroxy-1,1-dimethylpropyl)-2,4,6-triiodo-5-methoxyacetamidoisophthalamic acid]		67.2 (58.7-84.8) mg. I/kg.	18400
CC(=O)Nc1c(I)c(C(=O)O)c(I)c(C(=O)NCC(C)O)c1I (centres unmarked) [Compound 7]	18200	50.7 (44.3-56.6) mg. I/kg.	
